According to patent US20070043024A1, “Azacyclic compounds as inhibitors of sensory neurone specific channels” (priority 2003, published 2007):

The compounds below were run against T1, human Nav1.8 (hNav1.8) ion channel (Homo sapiens, UniProt Q9Y5Y9) (assay: Inhibition of human Nav1.8 stably expressed in SH-SY-5Y cells (membrane potential dye fluorescence assay)). Conditions: Table 1; SH-SY-5Y hNav1.8 cells, inhibition of membrane depolarisation, FLIPR membrane potential dye, 250 nM TTX, test concentration range 100 μM-0.05 μM; read-out: IC50.
T1 construct: expressed in transfected cells
T1 sequence (Q9Y5Y9 whole entry): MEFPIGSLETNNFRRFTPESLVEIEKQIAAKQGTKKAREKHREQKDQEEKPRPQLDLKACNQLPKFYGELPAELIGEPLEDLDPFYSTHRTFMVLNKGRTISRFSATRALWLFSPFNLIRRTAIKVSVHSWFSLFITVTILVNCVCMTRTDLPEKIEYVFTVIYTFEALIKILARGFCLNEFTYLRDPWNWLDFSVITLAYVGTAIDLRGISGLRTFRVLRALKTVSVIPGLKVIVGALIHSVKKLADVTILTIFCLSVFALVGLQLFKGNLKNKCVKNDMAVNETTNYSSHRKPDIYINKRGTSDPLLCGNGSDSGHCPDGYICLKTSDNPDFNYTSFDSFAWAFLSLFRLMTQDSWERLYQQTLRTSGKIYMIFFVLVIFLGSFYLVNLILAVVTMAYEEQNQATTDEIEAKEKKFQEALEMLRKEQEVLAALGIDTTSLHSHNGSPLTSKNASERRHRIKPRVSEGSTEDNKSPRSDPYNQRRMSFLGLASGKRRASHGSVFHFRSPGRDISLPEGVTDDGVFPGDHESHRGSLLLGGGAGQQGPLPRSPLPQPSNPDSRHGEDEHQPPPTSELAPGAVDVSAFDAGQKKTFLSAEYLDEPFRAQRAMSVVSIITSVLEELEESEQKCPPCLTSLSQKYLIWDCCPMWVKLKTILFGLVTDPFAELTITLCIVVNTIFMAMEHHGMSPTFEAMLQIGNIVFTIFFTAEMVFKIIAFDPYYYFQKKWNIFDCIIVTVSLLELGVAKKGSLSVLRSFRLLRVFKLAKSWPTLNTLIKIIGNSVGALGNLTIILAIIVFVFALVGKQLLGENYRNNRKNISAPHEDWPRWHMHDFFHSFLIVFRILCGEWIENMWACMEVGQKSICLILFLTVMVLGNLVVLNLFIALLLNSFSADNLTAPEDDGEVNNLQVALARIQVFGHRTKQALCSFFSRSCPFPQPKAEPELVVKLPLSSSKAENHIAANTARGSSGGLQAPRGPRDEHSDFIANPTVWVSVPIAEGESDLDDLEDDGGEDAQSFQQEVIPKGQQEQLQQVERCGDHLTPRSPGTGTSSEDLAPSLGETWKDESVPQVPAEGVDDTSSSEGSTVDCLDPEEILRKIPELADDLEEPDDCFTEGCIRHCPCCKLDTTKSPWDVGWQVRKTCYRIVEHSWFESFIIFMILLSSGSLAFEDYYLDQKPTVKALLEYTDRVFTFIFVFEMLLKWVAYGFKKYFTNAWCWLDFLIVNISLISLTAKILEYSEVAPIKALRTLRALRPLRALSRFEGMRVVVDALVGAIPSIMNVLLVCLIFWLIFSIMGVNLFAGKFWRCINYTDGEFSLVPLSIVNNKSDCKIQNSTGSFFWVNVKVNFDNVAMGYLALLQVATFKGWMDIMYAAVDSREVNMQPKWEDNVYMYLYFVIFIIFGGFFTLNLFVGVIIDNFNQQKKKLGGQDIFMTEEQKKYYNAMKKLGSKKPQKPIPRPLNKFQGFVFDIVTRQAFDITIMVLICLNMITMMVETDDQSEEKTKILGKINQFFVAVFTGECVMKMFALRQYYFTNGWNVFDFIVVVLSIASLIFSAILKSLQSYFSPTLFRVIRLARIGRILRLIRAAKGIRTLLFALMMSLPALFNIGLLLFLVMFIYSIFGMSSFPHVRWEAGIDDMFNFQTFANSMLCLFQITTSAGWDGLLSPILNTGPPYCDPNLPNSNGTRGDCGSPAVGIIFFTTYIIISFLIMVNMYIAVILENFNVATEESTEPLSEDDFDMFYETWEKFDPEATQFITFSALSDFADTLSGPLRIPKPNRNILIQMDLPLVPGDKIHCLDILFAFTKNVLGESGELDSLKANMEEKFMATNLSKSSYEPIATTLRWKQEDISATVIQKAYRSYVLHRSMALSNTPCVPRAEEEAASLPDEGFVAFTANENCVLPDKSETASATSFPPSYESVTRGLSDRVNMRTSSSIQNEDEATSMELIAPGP
Type: cell-based
For `O=C(CON=C(c1ccccc1)c1ccccc1)N1CCc2ccccc2C1` [Example 42, 2-Benzhydrylideneaminooxy-1-(3,4-dihydro-1H-isoquinoline-2-yl)-ethanone], the IC50 was 1050 nM. `O=C(CN1CCc2ccccc2C1)N1CCN(C(c2ccc(F)cc2)c2ccc(F)cc2)CC1` [Example 65, 1-{4-[Bis-(4-fluoro-phenyl)-methyl]-piperazin-1-yl}-2-(3,4-dihydro-1H-isoquinolin-2-yl)-ethanone] gave an IC50 of 5640 nM. For `COc1cccc2c1CN(CC(=O)NC(c1ccccc1)c1ccccn1)CC2` (stereo not shown) [Example 69, 2-(8-methoxy-3,4-dihydro-1H-isoquinolin-2-yl)-N-(phenyl-pyridin-2-yl-methyl)-acetamide], the IC50 was 8960 nM. Work on `S=C(NC(c1ccccc1)c1ccccc1)N1CCc2ccccc2C1` [Example 50, 3,4-Dihydro-1H-isoquinoline-2-carbothioic acid benzhydryl-amide] yielded an IC50 of 2740 nM. In the case of `O=C(CN1CCc2ccccc2C1)N(Cc1ccccc1)c1ccccc1` [Example 17, N-Benzyl-2-(3,4-dihydro-1H-isoquinolin-2-yl)-N-phenyl-acetamide], the IC50 is reported as 1250 nM. Work on `Oc1cccc2c1CN(Cc1ccc(SC(F)(F)F)cc1)CC2` [Example 94, 2-(4-Trifluoromethylsulfanyl-benzyl)-1,2,3,4-tetrahydro-isoquinolin-8-ol] yielded an IC50 of 2170 nM.

Same assay, conditions: Table 2 (compound numbers of the list in the description); SH-SY-5Y hNav1.8 cells, inhibition of membrane depolarisation, FLIPR membrane potential dye, 250 nM TTX, test concentration range 100 μM-0.05 μM; read-out: IC50
For `COc1cccc2c1CN(CC(=O)N1c3ccccc3OCC1c1ccc(NC(C)=O)cc1)CC2` (stereo not shown) [Compound 214, N-(4-{4-[2-(8-Methoxy-3,4-dihydro-1H-isoquinolin-2-yl)-acetyl]-3,4-dihydro-2H-benzo[1,4]oxazin-3-yl}-phenyl)-acetamide], the IC50 was 6360 nM. Work on `CCOc1cccc2c1CN(CC(=O)NCCCC(c1ccccc1)c1ccccc1)CC2` [Compound 92, N-(4,4-Diphenyl-butyl)-2-(8-ethoxy-3,4-dihydro-1H-isoquinolin-2-yl)-acetamide] yielded an IC50 of 4820 nM. For `CCOC(=O)C1CN(C(=O)CN2CCc3cccc(OC)c3C2)c2ccccc2O1` (stereo not shown) [Compound 171, 4-[2-(8-Methoxy-3,4-dihydro-1H-isoquinolin-2-yl)-acetyl]-3,4-dihydro-2H-benzo[1,4]oxazine-2-carboxylic acid ethyl ester], the IC50 was 1750 nM. `COc1cccc2c1CN(CCCOC=C(c1ccccc1)c1ccccc1)CC2` [Compound 74, 2-[3-(2,2-diphenyl-vinyloxy)-propyl]-8-methoxy-1,2,3,4-tetrahydro-isoquinoline] was tested, and the IC50 was 1800 nM. `CC(=O)Nc1cccc2c1CN(CC(=O)NCCCC(c1ccccc1)c1ccccc1)CC2` [Compound 112, 2-(8-Acetylamino-3,4-dihydro-1H-isoquinolin-2-yl)-N-(4,4-diphenyl-butyl)-acetamide] showed an IC50 of 790 nM. `COc1cccc2c1CN(CC(=O)N1c3ccccc3Sc3ccccc31)CC2` [Compound 140, 2-(8-Methoxy-3,4-dihydro-1H-isoquinolin-2-yl)-1-phenothiazin-10-yl-ethanone] showed an IC50 of 2330 nM. For `COc1ccc2c(c1)CCCN(CC(=O)NCC(c1ccccc1)c1ccccc1)C2` [Compound 84, N-(2,2-diphenyl-ethyl)-2-(7-methoxy-1,3,4,5-tetrahydro-benzo[c]azepin-2-yl)-acetamide], the IC50 was 400 nM. For `COc1ccc(C(CCNC(=O)CN2CCc3ccccc3C2)c2ccc(OC)cc2)cc1` [Compound 114, N-[3,3-Bis-(4-methoxy-phenyl)-propyl]-2-(3,4-dihydro-1H-isoquinolin-2-yl)-acetamide], the IC50 was 10600 nM. For `CCOC(=O)C1CN(C(=O)CN2CCc3cccc(O)c3C2)c2ccccc2O1` (stereo not shown) [Compound 170, 4-[2-(8-Hydroxy-3,4-dihydro-1H-isoquinolin-2-yl)-acetyl]-3,4-dihydro-2H-benzo[1,4]oxazine-2-carboxylic acid ethyl ester], the IC50 was 1690 nM. Compound `COc1ccc(OC)c(C2COc3ccccc3N2C(=O)CN2CCc3cccc(OC)c3C2)c1` (stereo not shown) [Compound 213, 1-[3-(2,5-Dimethoxy-phenyl)-2,3-dihydro-benzo[1,4]oxazin-4-yl]-2-(8-methoxy-3,4-dihydro-1H-isoquinolin-2-yl)-ethanone] has an IC50 of 8240 nM.
